Read-outs that look alike come from different tables or passages of the source.
Experiments:
[1] = system: SH-SY5Y human neuroblastoma cells; assay: Protection against 6-OHDA-induced cell death, condition B (no fetal bovine serum); format: cell-based; conditions: preincubated 1 hour, 6-OHDA 50 μM 24 hours, read-out: Protect. 6-OHDA (−FBS) (minimum concentration with neuroprotective effect)
[2] = Screening pharmacokinetic study, plasma and brain (LC-MS/MS); format: in vivo, mice (C57BL6/J); conditions: mice; for Kp / bioavailability / Tmax / AUC / Cmax / half-life: male, C57BL6/J, mouse; for Kp: brain and plasma
Description: The objective of this study is to evaluate the oral bioavailability and the plasmatic and brain pharmacokinetic parameters after oral and intravenous administration, thus determining if compounds of formula (I) are able to cross the blood brain barrier (BBB). […] Each compound was solved in appropriate excipients. In the case of oral administration, compound was administered by means of an oral gavage coupled to a syringe. In the intravenous administration animals, the test item was administered by a single injection with a syringe coupled to a 30 G needle.
Two animals were sacrificed (according to internal SOPs and following animal handling and welfare guidelines) at each selected extraction times (i.e. 30 min, 1 h, 2 h, 4 h, 6 h, 8 h and 24 hours after administration), and from each animal, both brain and blood samples were obtained. Plasma was extracted by centrifugation of the blood samples. Each sample time represents two male mice from which samples were obtained.
The method for the analysis of plasma and brain samples involved isolation of the analyte from the biological matrix by protein precipitation or solid-phase extraction followed by analysis using LC-MS/MS. Limits of quantification for these compounds were in the order of 2-10 ng/mL. The software Winnonlin professional version 5.2 was used for the calculation of pharmacokinetic parameters.
In the following tables, the abbreviations have the meaning indicated below: • AUC=Area under the curve • T1/2=Half-life • Tmax=the time after administration of a drug when the maximum plasma concentration is reached; when the rate of absorption equals the rate of elimination • Cmax=maximum plasma concentration of the drug • V. Adm. and Vol. Adm.=volume of administration

[3] = system: SH-SY5Y human neuroblastoma cells; assay: Protection against hydrogen peroxide-induced cell death (LDH); format: cell-based; conditions: compound 1 h before H2O2 100 μM, 24 h
[4] = Chelating ability with Fe(II) (absorbance spectra); format: physicochemical
Description: FIG. 2 is an absorbance spectrum of the complex Fe(II)-Compound 4. Concentration of Fe(II) and Compound 4, 200 μM, PBS 10 mM, pH 8.
FIG. 3 is an absorbance spectrum of the complex Fe(II)-Compound 7. Concentration of Fe(II) and Compound 7 , 400 μM, PBS 10 mM, pH 8.
FIG. 4 is an absorbance spectrum of the complex Fe(II)-Compound 8. Concentration of Fe(II) and Compound 8, 200 μM, PBS 10 mM, pH 7.4.
FIG. 5 is an absorbance spectrum of the complex Fe(II)-Compound 10. Concentration of Fe(II) and Compound 10, 100 μM, PBS 10 mM, pH 7.4.
(§1) Therefore, it may be observed that the compounds of formula (I) have a high affinity to Fe (II) in comparison to the rest of metalic ions tested.

[5] = Chelating ability with Fe (III) (absorbance spectra); format: physicochemical; conditions: PBS 10 mM, pH 7.4, ligand and Fe(III) 200 μM, FIG. 1
Description: FIG. 1 is an absorbance spectrum of compounds 4, 7, 8 and 10 in absence and presence of Fe(III). PBS 10 mM, pH 7.4. Concentration of ligand and Fe(III), 200 μM.
Only one line is observed, as the spectra are overlapping (see FIG. 1).

[6] = Chelating ability with Cu (II) (absorbance spectra); format: physicochemical; conditions: pH 7.4, expecting time 2 h
Description: FIG. 6 depicts the absorbance spectra of the mixture of Cu (II) and each of the quelating ligands (Compound 4, Compound 7, Compound 8). Concentration of Cu(II) and all compounds 200 μM, PBS 10 mM, pH 7.4.
FIG. 7 is the absorbance spectra of the complex Cu(II)-Compound 10. Concentration 200 μM, PBS 10 mM, pH 7.4.
as §1

[7] = intravenous route, group 1-2 mg/kg (Compound 4, 8: 1.00; 7: 1.20; 10: 2.00 mg/Kg), brain
[8] = intravenous route, group 1-2 mg/kg (Compound 4, 8: 1.00; 7: 1.20; 10: 2.00 mg/Kg), plasma
[9] = Fe (II) complex, pH 7.4, expecting time Immediate

In the case of CCN(CC)CCOc1cc(/C=N/O)nc2c1ccc1cccnc12 [Compound 10, 4-(2-Diethylamino-ethoxy)-[1,10]phenanthroline-2-carbaldehyde oxime], the minimal effective concentration [1] is reported as 0.5 µM, the Kp ([2]; iv, brain AUC relative to plasma AUC, intravenous route, group 1-2 mg/kg, read-out: % AUC) is reported as 0.229 and the Kp ([2]; iv, brain Cmax relative to plasma Cmax, intravenous route, group 1-2 mg/kg, read-out: % Cmax) is reported as 0.137. For the same compound, the Kp ([2]; po, 20 mg/kg, brain AUC relative to plasma AUC, 20 mg/kg oral route, read-out: % AUC) was 0.119, the Kp ([2]; po, 20 mg/kg, brain Cmax relative to plasma Cmax, 20 mg/kg oral route, read-out: % Cmax) was 0.0876 and the Kp ([2]; po, 200 mg/kg, brain AUC relative to plasma AUC, 200 mg/kg oral route, read-out: % AUC) was 8.32. It also gave a Kp ([2]; po, 200 mg/kg, brain Cmax relative to plasma Cmax, 200 mg/kg oral route, read-out: % Cmax) of 1.96, a bioavailability ([2]; plasma, 20 mg/kg oral route (low dose)) of 12.5% and a bioavailability ([2]; plasma, 200 mg/kg oral route (high dose)) of 77.6%. For the same compound, the Tmax ([2]; 20 mg/kg oral route, brain) was 1 h, the AUC ([2]; 20 mg/kg oral route, plasma) was 184 ng·h/mL and the Cmax ([2]; 20 mg/kg oral route, plasma) was 149 ng/mL. The Tmax ([2]; 20 mg/kg oral route, plasma) was 1 h, the half-life ([2]; 20 mg/kg oral route, plasma) was 4 h and the Tmax ([2]; 200 mg/kg oral route, brain) was 2 h. The AUC ([2]; 200 mg/kg oral route, plasma) was 11500 ng·h/mL, the Cmax ([2]; 200 mg/kg oral route, plasma) was 3950 ng/mL and the Tmax ([2]; 200 mg/kg oral route, plasma) was 0.5 h. The half-life ([2]; 200 mg/kg oral route, plasma) was 3.79 h, the Tmax [2, 7] was 0.08 h and the half-life [2, 7] was 2.6 h. The AUC [2, 8] was 148 ng·h/mL, the Cmax [2, 8] was 136 ng/mL and the Tmax [2, 8] was 0.08 h. The half-life [2, 8] was 8.1 h, the “Cmax Brain” value ([2]; 20 mg/kg oral route, brain) was 13.07 ng/g and the “Cmax Brain” value ([2]; 200 mg/kg oral route, brain) was 7751.80 ng/g. For the same compound, the “Cmax Brain” value [2, 7] was 18.7 ng/g, the “Protect. H2O2 (minimum concentration for which protection was determined)” value [3] was 50 nM and the Formation constant ([4]; Fe (II) complex 1:3 (ML3), pH 7.4, expecting time Immediate) was 5.0 ± 1.0 · 10^17. For the same compound, the Dissociation grade [4, 9] was 0.019 ± 0.004, the Stoichiometry [4, 9] was 1:3 (ML3) and the ε approx. [4, 9] was about 6700 L/mol/cm. For the same compound, the “Ability to complex Fe (II) (spectrum of mixture vs sum of individual spectra)” value ([4]; PBS 10 mM, pH 7.4 or 8, FIGS. 2-5) was “able to complex the Fe (II)”, the “Ability to complex Fe (III) (change in absorbance spectra)” value [5] was “no change in the absorbance spectra” and the Formation constant ([6]; Cu (II) complex 1:1 (ML)) was 4.4 ± 0.6 · 10^6 l/mol. The Dissociation grade ([6]; Cu (II) complex) was 3.8 ± 0.4, the Stoichiometry ([6]; Cu (II) complex) was 1:1 (ML) and the ε approx. ([6]; Cu (II) complex) was about 400 L/mol/cm.

Source: patent publication US8592446B2, “[1,10]-phenanthroline derivatives for the treatment of neurodegenerative or haematological diseases” (Noscira, S.A., priority 2007, dated 2013)
